Earlier results, collected in patent publication US11077150B2, “Methods and compositions for treatment of eye conditions” (priority 2018, dated 2021).

Experiments:
[1] = oral doses of up to 600 mg; elderly subjects
[2] = 75 symptomatic patients; nine-month trial; eye drops
CB2 receptors = CB2 receptors (Homo sapiens, UniProt P34972)
[3] = rat model of DR
[4] = topically applied in light mineral oil; volunteers

Chain of CB2 receptors (P34972 whole entry): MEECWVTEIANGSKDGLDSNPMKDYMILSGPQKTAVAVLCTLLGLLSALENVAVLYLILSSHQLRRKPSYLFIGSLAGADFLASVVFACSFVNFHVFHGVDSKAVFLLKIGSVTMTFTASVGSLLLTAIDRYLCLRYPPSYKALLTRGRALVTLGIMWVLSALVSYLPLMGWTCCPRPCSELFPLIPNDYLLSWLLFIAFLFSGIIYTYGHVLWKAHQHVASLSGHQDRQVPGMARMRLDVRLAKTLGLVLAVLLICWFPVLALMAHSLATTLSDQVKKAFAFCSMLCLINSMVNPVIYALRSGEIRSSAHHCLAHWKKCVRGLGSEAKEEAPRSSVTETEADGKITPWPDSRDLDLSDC

Compound: O=C(O)CCCCC1CCSS1 (stereo not drawn) [lipoic acid, α-lipoic acid]
- tolerability [1]: well tolerated

Compound: CC(=O)NCCC(=O)N[C@@H](Cc1cnc[nH]1)C(=O)O [N-acetyl carnosine]
- glare sensitivity [2]: significant improvement
- visual acuity [2]: improvement

Compound: C=C(C)[C@@H]1CCC(C)=C[C@H]1c1c(O)cc(CCCCC)cc1O [Cannabidiol, cannabidiol]
- affinity for CB2 receptors (CB2 receptors): low affinity
- oxidative stress and neurotoxicity [3]: significantly reduced
- retinal cell death [3]: prevented
- water solubility: very low

Compound: CCCCCc1cc(O)c2c(c1)OC(C)(C)[C@@H]1CCC(C)=C[C@@H]21 [THC, Δ^9-tetrahydrocannabinol]
- adverse effects [4]: burning sensation, lid swelling
- effect on interocular pressure [4]: did not improve
